Results taken from US5965569A, “Polycyclic aminopyridine compounds which are acetylcholinesterase inhibitors, process for preparing them and their use” (priority 1995, dated 1999).
Counter-ions that a name gives are not always drawn. Like-named read-outs stand apart in the source and are kept apart here.

Assays:
[1] = molecular target: acetylcholinesterase (Homo sapiens, UniProt P22303); assay: Acetylcholinesterase-inhibiting capacity, colorimetric method of Ellman et al.; format: biochemical
[2] = administered intravenously in combination with lecithin, cited from earlier work
[3] = Table 8, with respect to tacrine under the same conditions
[4] = Table 8, with respect to tacrine under the same conditions, hydrochloride

Chain of acetylcholinesterase (P22303 32-614): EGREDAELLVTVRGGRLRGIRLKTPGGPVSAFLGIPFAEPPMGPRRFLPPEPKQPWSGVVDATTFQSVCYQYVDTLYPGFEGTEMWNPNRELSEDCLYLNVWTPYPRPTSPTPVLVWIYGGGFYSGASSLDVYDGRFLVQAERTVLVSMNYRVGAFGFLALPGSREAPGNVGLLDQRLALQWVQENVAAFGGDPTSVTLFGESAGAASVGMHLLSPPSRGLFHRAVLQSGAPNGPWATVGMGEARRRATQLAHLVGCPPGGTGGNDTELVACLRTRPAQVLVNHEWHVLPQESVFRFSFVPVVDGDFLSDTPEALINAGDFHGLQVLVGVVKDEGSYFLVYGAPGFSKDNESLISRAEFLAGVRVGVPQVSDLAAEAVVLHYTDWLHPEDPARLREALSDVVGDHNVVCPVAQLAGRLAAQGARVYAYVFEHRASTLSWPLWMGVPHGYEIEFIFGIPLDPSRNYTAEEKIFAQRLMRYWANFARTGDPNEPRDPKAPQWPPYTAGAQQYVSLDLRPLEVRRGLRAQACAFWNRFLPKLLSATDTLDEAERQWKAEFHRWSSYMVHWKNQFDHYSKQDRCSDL

SMILES | IC50 tacrine/IC50 compound (ratio of the IC50 of tacrine to the IC50 of each compound) [1] | IC50 tacrine/IC50 compound (ratio of the IC50 of tacrine to the IC50 of each compound) [1, 3] | other results
CC1=CC2Cc3nc4ccccc4c(N)c3C(C1)C2 (racemic) [Ibw, 12-Amino-6,7,10,11-tetrahydro-9-methyl-7,11-methanocycloocta[b]quinoline] | 2.00 |  | 
CCC1=CC2Cc3nc4ccccc4c(N)c3C(C1)C2 (racemic) [Icw, 12-Amino-9-ethyl-6,7,10,11-tetrahydro-7,11-methanocycloocta[b]quinoline] |  | 3.38 | 
CCC1=CC2Cc3nc4ccccc4c(N)c3C(C1)C2 (single isomer, unassigned; (+)) [(+) --Icw, (+)-12-Amino-6,7,10,11-tetrahydro-9-ethyl-7,11-methanocycloocteno[b]quinoline hydrochloride] |  |  | IC50 tacrine/IC50 compound (ratio of the IC50 of tacrine to the IC50 of each compound) [1, 4]: 0.15
CCC1=CC2Cc3nc4ccccc4c(N)c3C(C1)C2 (single isomer, unassigned; (-)) [(-) --Icw, (-)-12-Amino-6,7,10,11-tetrahydro-9-ethyl-7,11-methanocycloocteno[b]quinoline hydrochloride] |  |  | IC50 tacrine/IC50 compound (ratio of the IC50 of tacrine to the IC50 of each compound) [1, 4]: 4.80; inhibitory activity against the enzyme acetylcholinesterase (in words) ([1]; qualitative comparison with tacrine or with enantiomer): much more active than their enantiomers
CC1=CC2Cc3nc4ccccc4c(N)c3C(C1)C2 (stereo not drawn) [(+) --Ibw] | 0.40 |  | 
CC1=CC2Cc3nc4ccccc4c(N)c3C(C1)C2 (stereo not drawn) [(-) --Ibw] | 2.80 |  | inhibitory activity against the enzyme acetylcholinesterase (in words) [1]: much more active than their enantiomers
CC1=CC2Cc3nc4cccc(F)c4c(N)c3C(C1)C2 (stereo not shown) [Ibx, 12-Amino-1-fluoro-6,7,10,11-tetrahydro-9-methyl-7,11-methanocycloocta[b]quinoline] |  | 4.14 | 
CC1=CC2Cc3nc4cc(F)ccc4c(N)c3C(C1)C2 (stereo not shown) [Iby, 12-Amino-3-fluoro-6,7,10,11-tetrahydro-9-methyl-7,11-methanocycloocta[b]quinoline] |  | 15.28 | 
Nc1c2c(nc3ccccc13)CC1C=C(c3ccccc3)CC2C1 (stereo not shown) [Ifw, 12-Amino-9-phenyl-6,7,10,11-tetrahydro-7,11-methanocycloocta[b]quinoline] |  | 1.03 | 
Nc1c2c(nc3ccccc13)CCCC2 [tacrine, 9-amino-1,2,3,4-tetrahydroacridine] |  |  | usefulness in the treatment of Alzheimer's disease (in words) [2]: proves useful in the treatment of Alzheimer's disease; toxicity (in words) ([2]; drawback of tacrine): high toxicity
